From patent publication US8067447B2, “Modulators of glucocorticoid receptor, AP-1, and/or NF-κB activity and use thereof” (Bristol-Myers Squibb Company, priority 2006, dated 2011)
Where two headings read alike, the source gives them in different places.

Experiments:
[1] = tested on: AP-1 induced transcriptional activity; assay: Cellular Transrepressional Assay (AP-1 luciferase reporter in A549 cells, PMA-activated); type: cell-based; details: A549 cells with 7x AP-1 luciferase reporter, 10 ng/ml PMA, read-out: AP-1 (EC50, nM) (Cellular Transrepression Assay)
Method: To measure the ability of test molecules to inhibit AP-1 induced transcriptional activity an A549 cell was utilized which was stably transfected with a plasmid containing 7× AP-1 DNA binding sites (pAP-1-Luc plasmid, Stratagene Co. La Jolla, Calif.) followed by the gene for luciferase. Cells were activated with 10 ng/ml of […] (PMA) plus or minus test molecules for 7 hours. After 7 hours a luciferase reagent was added to measure luciferase enzymatic activity in the cell. After a 10 minute incubation of luciferase reagent with cells, luminescence was measured in a TopCount luminescence counter. Repression of AP-1 activity was calculated as the percentage decrease in the signal induced by PMA alone. Test molecules were analyzed in the concentration range from 0.1 nM to 40 μM. EC50s were determined by using standard curve fitting methods such as Excel fit (Microsoft Co.).

[2] = target: T1, human glucocorticoid receptor (Homo sapiens, UniProt P04150); assay: Glucocorticoid Receptor Binding Assay (I), fluorescence polarization competitor kit (Fluormone GS Red); details: purified human recombinant full-length GR 2 nM, 1 nM Fluormone GS Red, FP; read-out: GR (Ki, nM) (GR Binding Assay (I))
T1 construct: purified human recombinant full-length glucocorticoid receptor (2 nM); purchased Invitrogen Part #2893
T1 sequence (P04150 1-777): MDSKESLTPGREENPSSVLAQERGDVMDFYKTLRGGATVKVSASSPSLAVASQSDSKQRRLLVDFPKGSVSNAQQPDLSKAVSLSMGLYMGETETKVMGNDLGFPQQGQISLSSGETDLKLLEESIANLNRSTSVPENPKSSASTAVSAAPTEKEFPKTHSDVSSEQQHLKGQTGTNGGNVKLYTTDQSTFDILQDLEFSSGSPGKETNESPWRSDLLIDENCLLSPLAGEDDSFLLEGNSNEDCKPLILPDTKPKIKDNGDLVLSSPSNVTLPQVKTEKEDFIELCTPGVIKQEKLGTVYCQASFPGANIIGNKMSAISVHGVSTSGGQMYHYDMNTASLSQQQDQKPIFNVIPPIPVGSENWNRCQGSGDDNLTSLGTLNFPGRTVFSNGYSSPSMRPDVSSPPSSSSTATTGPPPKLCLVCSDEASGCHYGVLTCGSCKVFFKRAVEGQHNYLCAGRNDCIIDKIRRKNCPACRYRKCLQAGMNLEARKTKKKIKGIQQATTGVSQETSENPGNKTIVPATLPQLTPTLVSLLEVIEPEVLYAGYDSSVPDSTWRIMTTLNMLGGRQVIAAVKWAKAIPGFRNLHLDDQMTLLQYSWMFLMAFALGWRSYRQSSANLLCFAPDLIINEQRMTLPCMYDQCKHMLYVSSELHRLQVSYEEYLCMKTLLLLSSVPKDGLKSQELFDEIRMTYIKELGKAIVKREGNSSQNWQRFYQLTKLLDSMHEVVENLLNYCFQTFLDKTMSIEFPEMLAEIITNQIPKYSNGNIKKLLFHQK
Method: Briefly, purified human recombinant full-length glucocorticoid receptor (2 nM) was mixed with fluorescently labeled glucocorticoid (1 nM Fluormone GS Red) in the presence or absence of test compound. After two hour incubation at room temperature in the dark, the fluorescence polarization (FP) of the samples was measured. […] Test compounds were analyzed in the concentration range from 8.5E-05 μM to 5 μM.

SMILES | EC50 ([1]; Homo sapiens, A549, 7 h) [nM] | Ki [2] [nM] | EC50 ([1]; 7 hours) [nM]
CC(C)(C(=O)Nc1nccs1)C(c1ccccc1)c1ccc2[nH]c(-c3ccccn3)cc2c1 (single isomer, unassigned) [111-enant A, 2,2-Dimethyl-3-phenyl-3-(2-(pyridin-2-yl)-1H-indol-5-yl)-N-(thiazol-2-yl)propanamide] | 1090 | 73 | –
CC(C)(C(=O)Nc1nccs1)C(c1ccccc1)c1ccc2[nH]c(-c3ccccn3)cc2c1 (single isomer, unassigned) [111-enant B, 2,2-Dimethyl-3-phenyl-3-(2-(pyridin-2-yl)-1H-indol-5-yl)-N-(thiazol-2-yl)propanamide] | – | 25 | 777
O=C(CC(c1ccccc1)c1ccc2c(cnn2-c2ccc(F)cc2)c1)Nc1nncs1 (single isomer, unassigned) [136-enant A, 3-(1-(4-Fluorophenyl)-1H-indazol-5-yl)-3-phenyl-N-(1,3,4-thiadiazol-2-yl)propanamide] | – | 23 | > 10000
O=C(CC(c1ccccc1)c1ccc2c(cnn2-c2ccc(F)cc2)c1)Nc1nncs1 (single isomer, unassigned) [136-enant B, 3-(1-(4-Fluorophenyl)-1H-indazol-5-yl)-3-phenyl-N-(1,3,4-thiadiazol-2-yl)propanamide] | – | 6 | 13
CC(C)(C(=O)NC1CCCC1)C(c1ccccc1)c1ccc2c(cnn2-c2ccc(F)cc2)c1 (centres unmarked) [Example 3, N-cyclopentyl-3-(1-(4-fluorophenyl)-1H-indazol-5-yl)-2,2-dimethyl-3-phenylpropanamide] | 199 | 6.9 | –
Cn1ccc(NC(=O)C(C)(C)C(c2ccccc2)c2ccc3c(cnn3-c3ccc(F)cc3)c2)n1 (centres unmarked) [Example 4, 3-(1-(4-fluorophenyl)-1H-indazol-5-yl)-2,2-dimethyl-N-(1-methyl-1H-pyrazol-3-yl)-3-phenylpropanamide] | 12 | 7 | –
CC(C)(C(=O)NS(C)(=O)=O)C(c1ccccc1)c1ccc2c(cnn2-c2ccc(F)cc2)c1 (centres unmarked) [Example 5, 3-(1-(4-fluorophenyl)-1H-indazol-5-yl)-2,2-dimethyl-N-(methylsulfonyl)-3-phenylpropanamide] | 1330 | 7 | –
CC(C)(C(=O)NS(=O)(=O)C(F)(F)F)C(c1ccccc1)c1ccc2c(cnn2-c2ccc(F)cc2)c1 (centres unmarked) [Example 6, 3-(1-(4-fluorophenyl)-1H-indazol-5-yl)-2,2-dimethyl-3-phenyl-N-(trifluoromethylsulfonyl) propanamide] | > 10000 | 77 | –
CC(C)(C)CNC(=O)C(C)(C)C(c1ccccc1)c1ccc2c(cnn2-c2ccc(F)cc2)c1 (centres unmarked) [Example 7, 3-(1-(4-fluorophenyl)-1H-indazol-5-yl)-2,2-dimethyl-N-neopentyl-3-phenylpropanamide] | 904 | 2.9 | –
CC(C)(C(=O)NCC(F)(F)F)C(c1ccccc1)c1ccc2c(cnn2-c2ccc(F)cc2)c1 (centres unmarked) [Example 8, 3-(1-(4-fluorophenyl)-1H-indazol-5-yl)-2,2-dimethyl-3-phenyl-N-(2,2,2-trifluoroethyl)prop-anamide] | 1800 | 3 | –

Now from value to compound:

EC50 ([1]; Homo sapiens, A549, 7 h) [nM] | Ki [2] [nM] | EC50 ([1]; 7 hours) [nM] | SMILES
– | – | 0.23 | CC(C(=O)Nc1nncs1)C(c1ccccc1)c1ccc2c(cnn2-c2ccc(F)cc2)c1 (single isomer, unassigned) [Example 141-isomerC, 3-(1-(4-Fluorophenyl)-1H-indazol-5-yl)-2-methyl-3-phenyl-N-(1,3,4-thiadiazol-2-yl)propanamide]
3060 | 3.7 | – | CC(C)(C(=O)NCCC(F)(F)F)C(c1ccccc1)c1ccc2c(cnn2-c2ccc(F)cc2)c1 (centres unmarked) [Example 9, 3-(1-(4-fluorophenyl)-1H-indazol-5-yl)-2,2-dimethyl-3-phenyl-N-(3,3,3-trifluoropropyl)-propanamide]
3520 | 227 | – | CCOC(=O)c1nnc(NC(=O)C(C)(C)C(c2ccccc2)c2ccc3c(cnn3-c3ccc(F)cc3)c2)s1 (centres unmarked) [Example 10, ethyl 5-(3-(1-(4-fluorophenyl)-1H-indazol-5-yl)-2,2-dimethyl-3-phenylprop-anamido)-1,3,4-thiadiazole-2-carboxylate]
73 | 11 | – | CC(C)(C(=O)Nc1ccsc1)C(c1ccccc1)c1ccc2c(cnn2-c2ccc(F)cc2)c1 (centres unmarked) [Example 11, 3-(1-(4-fluorophenyl)-1H-indazol-5-yl)-2,2-dimethyl-3-phenyl-N-(thiophen-3-yl)propanamide]
17 | 11 | – | CC(C)(C(=O)Nc1nc[nH]n1)C(c1ccccc1)c1ccc2c(cnn2-c2ccc(F)cc2)c1 (centres unmarked) [Example 13, 3-(1-(4-fluorophenyl)-1H-indazol-5-yl)-2,2-dimethyl-3-phenyl-N-(1H-1,2,4-triazol-3-yl)propanamide]
> 10000 | 17 | – | CC(C)(C(=O)Nc1nnn[nH]1)C(c1ccccc1)c1ccc2c(cnn2-c2ccc(F)cc2)c1 (centres unmarked) [Example 14, 3-(1-(4-fluorophenyl)-1H-indazol-5-yl)-2,2-dimethyl-3-phenyl-N-(1H-tetrazol-5-yl)propanamide]
> 10000 | 318 | – | CC(C)(C(=O)Nc1cc(O)[nH]n1)C(c1ccccc1)c1ccc2c(cnn2-c2ccc(F)cc2)c1 (centres unmarked) [Example 15, 3-(1-(4-fluorophenyl)-1H-indazol-5-yl)-N-(5-hydroxy-1H-pyrazol-3-yl)-2,2-dimethyl-3-phenylpropanamide]
> 10000 | 163 | – | CC(C)(C(=O)Nc1n[nH]cc1C#N)C(c1ccccc1)c1ccc2c(cnn2-c2ccc(F)cc2)c1 (centres unmarked) [Example 16, N-(4-cyano-1H-pyrazol-3-yl)-3-(1-(4-fluorophenyl)-1H-indazol-5-yl)-2,2-dimethyl-3-phenylpropanamide]
49 | 11 | – | Cc1cnc(NC(=O)C(C)(C)C(c2ccccc2)c2ccc3c(cnn3-c3ccc(F)cc3)c2)s1 (centres unmarked) [Example 17, 3-(1-(4-fluorophenyl)-1H-indazol-5-yl)-2,2-dimethyl-N-(5-methylthiazol-2-yl)-3-phenylpropanamide]
141 | 21 | – | Cc1nnc(NC(=O)C(C)(C)C(c2ccccc2)c2ccc3c(cnn3-c3ccc(F)cc3)c2)s1 (centres unmarked) [Example 18, 3-(1-(4-fluorophenyl)-1H-indazol-5-yl)-2,2-dimethyl-N-(5-methyl-1,3,4-thiadiazol-2-yl)-3-phenylpropanamide]
> 10000 | 47 | – | CC(C)(C(=O)Nc1sccc1C#N)C(c1ccccc1)c1ccc2c(cnn2-c2ccc(F)cc2)c1 (centres unmarked) [Example 19, N-(3-cyanothiophen-2-yl)-3-(1-(4-fluorophenyl)-1H-indazol-5-yl)-2,2-dimethyl-3-phenylpropanamide]
> 10000 | 10 | – | CCc1nnc(NC(=O)C(C)(C)C(c2ccccc2)c2ccc3c(cnn3-c3ccc(F)cc3)c2)s1 (centres unmarked) [Example 20, N-(5-ethyl-1,3,4-thiadiazol-2-yl)-3-(1-(4-fluorophenyl)-1H-indazol-5-yl)-2,2-dimethyl-3-phenylpropanamide]
– | – | > 10000 | O=C(Nc1nccs1)C1CC1(c1ccccc1)c1ccc2c(cnn2-c2ccc(F)cc2)c1 (stereo not drawn) [Example 99, Cis-2-(1-(4-fluorophenyl)-1H-indazol-5-yl)-2-phenyl-N-(thiazol-2-yl)cyclopropanecarboxamide]
